Tests used:
[1] = test system: Monocyte-derived Dendritic Cells; assay: AlphaLISA IL10 secretion by dendritic cells; assay type: cell-based, human; details: for IL-10 secretion from DCs in co-stimulation with TLR activators: LPS 100 ng/ml or FIMH 10 μg/ml, mean of 3 MoDC donors, FIG. 9
Experimental: Dendritic Cells (DCs) were prepared from PBMC (Buffy Coat) and differentiated with GM-CSF (D 1:10000; =5 μl/50 ml) and IL-4 (D 1:5000; =10 μl/50 ml).
In this test, 30,000 cells/well were seeded in complete IMDM media (2 mM L-glutamine, 50 IU/mL penicillin, […] streptomycin, 10 mM Hepes and 10% heat-inactivated foetal calf serum) in 96 wells plates 24h before activation (and kept in a humidified 5% CO2 atmosphere at 37° C.). Pre-purified, or HPLC-eluted, fractions as well as EB7020 chemically synthetized and various controls were added to reporter cells at 10% vol/vol to a final volume of 100 μl.
AlphaLisa (Perkin Elmer) was realized on supernatant according the supplier protocol (for complete references: AlphaLISA® Research Reagents Human Interleukin 10 (IL10) Kit Product No.: AL218 C/F sold by PerkinElmer).

PBMC derived DCs = assay: Array (transcriptomics) on PBMC derived DCs; assay type: cell-based, human; design: SLC39A14 gene expression / IL6 gene expression / CCL1 gene expression / CCL8 gene expression / TNF-α gene expression: unit not given here; details: 3 donors, 6h, TNF-α 10 ng/ml, PHA 3 μg/ml, LPS 3 ng/ml, PAM3CSK4 10 ng/ml, MDP 5 μg/ml
Experimental: DCs from three different donors were seeded at 1.0×10^5 DCs/well in a 48 well plate in 0.5 ml of complete IMDM. The effect of the active fractions of the F4 clone was compared to the same fractions purified from the negative control (pBAD-fractions). TNF-α (10 ng/ml), PHA (3 μg/ml), LPS (3 ng/ml), PAM3CSK4 (10 ng/ml), and MDP 5 μg/ml were used as control.
Data were generated and analyzed using Spotfire software.
Transcriptomics was carried out on PBMC derived DCs from 3 donors.
DCs were stimulated (6h) with: • TNFα, PHA, LPS, PAM3CSK4, MDP=Positive control • F13, F25=HPLC fractions obtained from the complemented and functional F4D5-MsbA1-A2 clone • F4D5-pBAD-F13, F4D5-pBAD-F25=HPLC fractions obtained from the F4D5-pBADclone (negative control)
Data analysis was realised using TIBCO Spotfire software. The F4 fractions (from both positive and negative clones) were analysed individually and compared to known agonists (TNFα, PHA, LPS, PAM3CSK4, MDP).

| Molecule | IL-10 secretion from DCs in co-stimulation with TLR activators [1] | IL-10 secretion from human DCs ([1]; chemically synthesized compound, in presence of LPS, FIG. 8) | CCL1 gene expression (PBMC derived DCs) | CCL8 gene expression (PBMC derived DCs) | IL6 gene expression (PBMC derived DCs) | PERP gene expression (PBMC derived DCs) | PMP22 gene expression (PBMC derived DCs) | SLC39A14 gene expression (PBMC derived DCs) | TNF-α gene expression (PBMC derived DCs) |
| --- | --- | --- | --- | --- | --- | --- | --- | --- | --- |
| CC(=O)NC1C(OP(=O)(O)O)OC(CO)C(O)C1OC(C)C(=O)NC(C)C(=O)NC(CCC(=O)NC(CCCC(N)C(=O)O)C(=O)O)C(=O)O (stereo not shown) [EB7020, M-Tri-DAP monophosphate] | Synergy | IL-10 secretion is induced |  |  |  |  |  |  |  |
| CC(=O)N[C@H]1[C@@H](OP(=O)(O)OP(=O)(O)OC[C@H]2O[C@@H](n3ccc(=O)[nH]c3=O)[C@H](O)[C@@H]2O)O[C@H](CO)[C@@H](O)[C@@H]1O[C@H](C)C(=O)N[C@@H](C)C(=O)N[C@H](CCC(=O)N[C@@H](CCC[C@@H](N)C(=O)O)C(=O)O)C(=O)O [EB7021, UDP-M-Tri-DAP] | Synergy |  |  |  |  |  |  |  |  |
| CC(=O)NC1C(OP(=O)(O)OP(=O)(O)OC[C@H]2O[C@@H](n3ccc(=O)[nH]c3=O)C(O)C2O)OC(CO)C(O)C1OC(C)C(=O)NC(C)C(=O)NC(CCC(=O)NC(CCCC(N)C(=O)O)C(=O)NC(C)C(=O)O)C(=O)O (stereo partly shown) [EB7022, UDP-M-Tetrapeptide] | Synergy |  |  |  |  |  |  |  |  |
| CC(=O)N[C@@H]1[C@@H](O[C@H](C)C(=O)N[C@@H](C)C(=O)N[C@H](CCC(=O)O)C(N)=O)[C@H](O)[C@@H](CO)O[C@H]1O [MDP] |  |  | 3.1 | 4.1 | 9.4 | 1.6 | 1.0 | 0.9 | 3.5 |
| PAM3CSK4 |  |  | 30.6 | 64.8 | 718.1 | 2.6 | 1.0 | 1.6 | 28.4 |
| TNF-α |  |  | 4.2 | 11.2 | 32.9 | 1.0 | 0.8 | 1.2 | 5.6 |
